Laboratory results published in US20120115175A1, “METHODS FOR DIAGNOSING ELEVATED RIGHT OR LEFT VENTRICULAR FILLING PRESSURE” (Tufts Medical Center, Inc., priority 2010, published 2012).
Numbered stars: 1 amine (or outer) side, 2 acyl side, 3 side chain; on linkers, the order of the positions; unused ones are H or OH. Bridge positions count the residues as written; N and C are the ends. Square brackets hold non-standard residues; d marks the D form. Peptide text beside a SMILES is read from it. I, II: the chains in the order shown. Actinocin(9to1) = Cc1c2oc3c(C)ccc(C(=O)[*:1])c3nc-2c(C(=O)[*:2])c(N)c1=O; NMeV = CN[C@H](C(=O)O)C(C)C; Sar = CNCC(=O)O

Test system: human cardiac fibroblasts (hCF)
Assay: Cyclic mechanical stretch of human cardiac fibroblasts: endoglin mRNA (qRT-PCR), endoglin protein (Western blot), sEng release (ELISA)
Assay type: cell-based
Conditions: for stretch-induced endoglin mRNA expression: pre-treated 1 μM for 2 hours prior to mechanical stretch (10% cyclic stretch, 1 Hz), qRT-PCR
Experimental: As a first step towards understanding increased endoglin expression in heart failure, we exposed cardiac fibroblasts to cyclic mechanical stretch in vitro using a FlexCell apparatus. Briefly, human cardiac fibroblasts (hCF) were cultured onto silastic membranes and exposed to 10% cyclic stretch (1 Hz) for various time points in fibroblast basal media (FBM). We identified a rapid increase in sEng release by enzyme-linked immunosorbent assay (ELISA), followed by increased endoglin mRNA expression by quantitative real-time PCR (qRT-PCR) (FIG. 7).
To begin exploring the mechanism underlying stretch-induced endoglin expression, we pre-treated cultured hCF in FBM with actinomycin-D (Act-D; 1 μM), SB-431542 (an ALK-5 inhibitor; 1 μM), or anti-TGFβ1 antibodies (10 ng/mL, R&D Systems) for 2 hours prior to mechanical stretch. […] Furthermore, ERK-inhibition with 10 μM PD98059 attenuated stretch-induced mEng protein expression and sEng release by Western blot and ELISA (FIG. 9).

[1] = hCF in FBM, pre-treated 1 μM for 2 hours prior to mechanical stretch, ELISA

Compound	endoglin protein expression (hCF in FBM, pre-treated 1 μM for 2 hours prior to mechanical stretch)	stretch-induced endoglin mRNA expression (hCF in FBM)	sEng release [1]	stretch-induced sEng release (hCF, 10 μM, ELISA)	stretch-induced mEng protein expression (hCF, 10 μM, Western blot)
Cc1c2oc3c(C)ccc(C(=O)N[C@@H]4C(=O)N[C@H](C(C)C)C(=O)N5CCC[C@H]5C(=O)N(C)CC(=O)N(C)[C@@H](C(C)C)C(=O)O[C@@H]4C)c3nc-2c(C(=O)N[C@@H]2C(=O)N[C@H](C(C)C)C(=O)N3CCC[C@H]3C(=O)N(C)CC(=O)N(C)[C@@H](C(C)C)C(=O)O[C@@H]2C)c(N)c1=O [Act-D, actinomycin-D] (I: T[dV]P[Sar][NMeV] / II: T[dV]P[Sar][NMeV]; ester I:1-I:C, II:1-II:C; linker I:N-II:N via Actinocin(9to1))	minimal effect	abolished	minimal effect		
COc1cccc(-c2cc(=O)c3ccccc3o2)c1N [PD98059]				attenuated	attenuated
NC(=O)c1ccc(-c2nc(-c3ccc4c(c3)OCO4)c(-c3ccccn3)[nH]2)cc1 [SB-431542]		partially attenuated	failed to inhibit		
